{"source": "patent US20100144708A1", "about": "“HETEROCYCLIC COMPOUNDS CONTAINING NITROGEN ATOMS OR PHARMACEUTICALLY ACCEPTABLE SALTS THEREOF, PROCESS FOR THE PREPARATION THEREOF AND PHARMACEUTICAL COMPOSITION COMPRISING THE SAME FOR TREATMENT OF CANCER” (Korea Research Instititute of Bioscience and Biotechnology, priority 2006, published 2010)", "key": {"PC-3 (prostate cancer)": {"system": "PC-3 (prostate cancer)", "test": "Test for inhibition of tumor cell growth (SRB), PC-3", "type": "cell-based, Human", "conditions": "Homo sapiens; 48 hours, SRB staining; read-out: GI50 PC-3 (prostate ancer)", "procedure,_shortened": "(§1)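 Cells seeded in RPMI 1640 with 5% FBS, exposed to compound (final […], units as printed) for 48 hours at 37° C with 5% CO2, including a time-zero plate. TCA-fixed, SRB-stained, absorbance at 540 nm as percent of control; GI50 is the 50% growth-inhibition concentration.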"}, "[1]": {"system": "MBA-MB-231 (breast cancer)", "test": "Test for inhibition of tumor cell growth (SRB), MBA-MB-231", "type": "cell-based, Human", "conditions": "Homo sapiens; 48 hours, SRB staining", "procedure,_shortened": "as §1"}, "ACHN (kidney cancer)": {"system": "ACHN (kidney cancer)", "test": "Test for inhibition of tumor cell growth (SRB), ACHN", "type": "cell-based, Human", "conditions": "Homo sapiens, ACHN; 48 hours, SRB staining", "procedure,_shortened": "as §1"}, "NUGC-3 (gastric cancer)": {"system": "NUGC-3 (gastric cancer)", "test": "Test for inhibition of tumor cell growth (SRB), NUGC-3", "type": "cell-based, Human", "conditions": "Homo sapiens, NUGC-3; 48 hours, SRB staining", "procedure,_shortened": "as §1"}, "[2]": {"system": "human prostate cancer cell line PC-3", "test": "Test for tumor growth inhibition in animal model (PC-3 xenograft)", "type": "in vivo", "conditions": "30 mg/kg daily, 20 times, intraperitoneal; final day (day 21); vs vehicle-control; p<0.001", "method": "Female S.P.F BALB/c nude mice (7-week-old) were grafted with 3×10^7 cells/□ of human prostate cancer cell line PC-3, and then intraperitoneally administered with the compound prepared in Example 55 at a daily dosage of 30 mg/kg 20 times. A positive control group was intraperitoneally administered with adriamycin at a daily dosage of 2 mg/kg 10 times once every two days.\nThe changes in their body weight are shown in FIG. 1, the changes in tumor size are shown in FIG. 2, and the tumor weights measured on the final day (day 21) are shown in FIG. 3."}, "[3]": {"system": "human prostate cancer cell line, PC-3 cells", "test": "Western blot analysis in PC-3 cells", "type": "cell-based", "conditions": "0, 2, and 5 uM, 24 hours", "method": "4×10^6 of human prostate cancer cell line, PC-3 cells were cultured in 100 mm diameter-culture dishes with RPMI media containing 5% FBS for one day, and then treated with the compound prepared in Example 55 at concentrations of 0, 2, and 5 uM for 24 hours, respectively. Then, the cells were carefully washed with 10[…] of PBS twice, and 1 ml of PBS containing protease inhibitor cocktail (Roche, complete™-mini) (1 tablet/50[…] PBS) was added to the each dish. The cells were collected and sonicated. The sonicated cells were centrifuged using a microcentrifuge at 12000 rpm for 20 minutes, and the supernatant was collected. Then, the amount of protein was determined using a Bradford dye reagent (Bio-Rad), and after running 20[…] of the protein on an SDS-PAGE gel, the protein band was transferred to a nitrocellulose membrane (Bio-Rad). Subsequently, the amounts of each protein were analyzed using primary antibodies and secondary antibodies-HRP (horseradish peroxidase) that are specific to each protein to be tested (Amersham or Bio-Rad), and an ECL chemiluminescence reagent (Amersham)."}, "[4]": {"system": "human prostate cancer cell line, PC-3 cells", "test": "Flow cytometric analysis of apoptosis (PI staining) with NAC", "type": "cell-based", "conditions": "5 uM NAC for 3 hours, then compound 5 uM for 24 hours; compared to cells treated with only the compound", "method": "5×10^5 of human prostate cancer cell line, PC-3 cells were cultured in 60 mm diameter-culture dishes with RPMI 1640 media containing 5% FBS in an incubator supplied with 5% CO2 at 37° C. for one day, and then treated with 5 uM NAC (N-acetylcysteine, Sigma) for 3 hours. Then, the cells were treated with the compound prepared in Example 55 at concentrations of 5 uM, cultured for 24 hours. Subsequently, the cells were treated with 0.1% trypsin and detached. The detached cells were transferred to a 15[…] conical tube, and centrifuged at 200×g for 5 minutes to precipitate the cells. Then, the supernatant was removed. 0.5[…] of PBS solution containing 0.1 mg/□ RNase A was added thereto, so as to resuspend the cells. The cells were treated with a PI (propidium iodide) DNA staining solution in a concentration of 50[…]/□ to stain the DNA in the cells for 30 or more minutes. The PI-stained cells were e xcited using a flow cytometer (Becton Dickinson) at 488 nm by a laser beam, and an emission wavelength of 588 nm was represented by a histogram, and then quantitatively analyzed to determine the amount of DNA in the cells."}}}
{"compound": "CCCCCCCCCCCC(=O)N1CC[N+](CC)(Cc2cccc(C)c2)CC1", "note": "[Example 55, 4-dodecanoyl-1-ethyl-1-(3-methylbenzyl)piperazin-1-ium bromide]", "values": [{"measurement": "GI50", "setting": "PC-3 (prostate cancer)", "result": 0.41, "unit": "µg/mL"}, {"measurement": "GI50", "setting": "[1]", "result": 4.37, "unit": "µg/mL"}, {"measurement": "GI50", "setting": "ACHN (kidney cancer)", "result": 3.84, "unit": "µg/mL"}, {"measurement": "GI50", "setting": "NUGC-3 (gastric cancer)", "result": 0.9, "unit": "µg/mL"}, {"measurement": "effect of inhibiting tumor growth", "setting": "[2]", "result": 84.0, "unit": "%"}, {"measurement": "reduction of tumor weight", "setting": "[2]", "result": 79.5, "unit": "%"}, {"measurement": "amount of Bcl2", "setting": "[3]", "result": "down-regulated"}, {"measurement": "amount of RhoB", "setting": "[3]", "result": "increased"}, {"measurement": "amount of c-abl", "setting": "[3]", "result": "increased"}, {"measurement": "amount of p53", "setting": "[3]", "result": "sharply increased"}, {"measurement": "amount of phosphorylated p53", "setting": "[3]", "result": "sharply increased"}, {"measurement": "degree of apoptosis", "setting": "[4]", "result": "greatly decreased"}]}
